Results taken from ChEMBL document CHEMBL1131293, “N-[omega-(Tetralin-1-yl)alkyl] derivatives of 3,3-dimethylpiperidine are highly potent and selective sigma1 or sigma2 ligands” (J Med Chem, 1998).

Key:
Sigma 2 receptor = experiment: Evaluated for the binding affinity towards sigma 2 receptor by displacing the radioligand [3H]DTG in guinea-pig brain cortex.; parameters: species or system Cavia porcellus
[1] = target: Sigma non-opioid intracellular receptor 1 (Rattus norvegicus, UniProt Q9R0C9); experiment: Evaluated for the binding affinity towards sigma 1 receptor by displacing the radioligand [3H]-SKF- 10047 in whole rat brain membrane.; format: cell membranes
Sigma non-opioid intracellular receptor 1, sequence (Q9R0C9 whole entry): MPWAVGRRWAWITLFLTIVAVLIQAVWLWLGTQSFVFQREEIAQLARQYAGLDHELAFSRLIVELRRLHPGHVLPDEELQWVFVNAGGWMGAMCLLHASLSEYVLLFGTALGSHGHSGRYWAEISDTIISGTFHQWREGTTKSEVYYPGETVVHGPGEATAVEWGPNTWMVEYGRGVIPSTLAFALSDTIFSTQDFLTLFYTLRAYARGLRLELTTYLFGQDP

[2] = target: Sigma non-opioid intracellular receptor 1 (Rattus norvegicus) (UniProt Q9R0C9); experiment: IC50 ratio; sigma 1 to sigma 2; conditions: Cavia porcellus
Sigma non-opioid intracellular receptor 1 (Rattus norvegicus), sequence (Q9R0C9 whole entry): as above

[3] = target: Sigma non-opioid intracellular receptor 1 (Rattus norvegicus) (UniProt Q9R0C9); experiment: IC50 ratio; sigma 2 to sigma 1; conditions: Cavia porcellus

Row | Structure (SMILES) | IC50 (Sigma 2 receptor) | IC50 [1] | Ratio [2] | Ratio [3]
1 | COc1ccc2c(c1)CCCC2CCCCCN1CCCC(C)(C)C1 (centres undefined) | 0.03 nM | 0.62 nM | 21 | –
2 | CC1(C)CCCN(CCCC2CCCc3ccccc32)C1 (centres undefined) | 135 nM | 252 nM | 2 | 0.5
3 | CC1(C)CCCN(CCCC2CCc3ccccc32)C1 (centres undefined) | 4.5 nM | 6.9 nM | 1.5 | 0.6
4 | COc1ccc2c(c1)C(CCCCN1CCCC(C)(C)C1)CCC2 (centres undefined) | 0.44 nM | 25.6 nM | 58 | –
5 | COc1cccc2c1CCCC2CCCN1CCCC(C)(C)C1 (single isomer, unassigned; (+)) [listing 1 of 2 here] | – | – | – | 1340
6 | COc1cccc2c1CCC2CCCCN1CCCC(C)(C)C1 (centres undefined) | 4.6 nM | 9.3 nM | 2 | 0.5
7 | COc1cccc2c1CCCC2CCCN1CCCC(C)(C)C1 (racemic) [listing 1 of 2 here] | – | – | – | 287
8 | COc1ccc2c(c1)CCCC2CCCCN1CCCC(C)(C)C1 (centres undefined) | 0.016 nM | 2150 nM | > 100000 | –
9 | COc1cccc2c1CCCC2CCCCN1CCCC(C)(C)C1 (centres undefined) | 129 nM | 978 nM | 8 | –
10 | COc1ccc2c(c1)C(CCCN1CCCC(C)(C)C1)CCC2 (centres undefined) | 109 nM | 22 nM | – | 5
11 | CC1(C)CCCN(CCC2CCCc3ccccc32)C1 (centres undefined) | 1.1 nM | > 10000 nM | > 9090 | –
12 | CC1(C)CCCN(CCCC2CCCc3c(O)cccc32)C1 (centres undefined) | 100 nM | 41 nM | – | 2
13 | COc1cccc2c1CCCC2CCCN1CCCC(C)(C)C1 (single isomer, unassigned; (+)) [listing 2 of 2 here] | 119 nM | 0.089 nM | – | –
14 | COc1cccc2c1CCCC2CCCN1CCCC(C)(C)C1 (stereo in doubt; (-)-22) [listing 1 of 2 here] | 111 nM | 0.85 nM | – | –
15 | COc1ccc2c(c1)CCC2CCCN1CCCC(C)(C)C1 (centres undefined) | 1.01 nM | 4660 nM | 4610 | –
16 | CC1(C)CCCN(CCCC2=CCc3ccccc32)C1 | 1.09 nM | 0.99 nM | 1 | 1
17 | CC1(C)CCCN(CCCCC2=CCCc3ccccc32)C1 | 1.1 nM | 9450 nM | 8590 | –
18 | CC1(C)CCCN(CCCCCc2ccccc2)C1 | 10 nM | 5830 nM | 583 | –
19 | CC1(C)CCCN(CCCCC2CCCc3ccccc32)C1 (centres undefined) | 5.5 nM | 0.69 nM | – | 8
20 | COc1cccc2c1CCCC2CCCN1CCCC(C)(C)C1 (racemic) [listing 2 of 2 here] | 138 nM | 0.48 nM | – | –
21 | COc1ccc2c(c1)CCCC2CCCN1CCCC(C)(C)C1 (centres undefined) | 88 nM | > 10000 nM | > 114 | –
22 | COc1cccc2c1CCCC2CCCN1CCCC(C)(C)C1 (stereo in doubt; (-)-22) [listing 2 of 2 here] | – | – | – | 131
23 | CC1(C)CCCN(CCCCCC2CCCc3ccccc32)C1 (centres undefined) | 0.008 nM | 1520 nM | > 100000 | –
